Key:
Carbonic anhydrase 1 = Carbonic anhydrase 1 (Homo sapiens, UniProt P00915); experiment: Inhibition of human carbonic anhydrase 1 assessed as inhibitory constant preincubated for 15 mins by stopped-flow CO2 hydration assay
Carbonic anhydrase 2 = Carbonic anhydrase 2 (Homo sapiens, UniProt P00918); experiment: Inhibition of human carbonic anhydrase 2 assessed as inhibitory constant preincubated for 15 mins by stopped-flow CO2 hydration assay
Carbonic anhydrase 9 = Carbonic anhydrase 9 (Homo sapiens, UniProt Q16790); experiment: Inhibition of human carbonic anhydrase 9 assessed as inhibitory constant preincubated for 15 mins by stopped-flow CO2 hydration assay
Carbonic anhydrase 12 = Carbonic anhydrase 12 (Homo sapiens, UniProt O43570); experiment: Inhibition of human carbonic anhydrase 12 assessed as inhibitory constant preincubated for 15 mins by stopped-flow CO2 hydration assay
Carbonic anhydrase 12, sequence (O43570 whole entry): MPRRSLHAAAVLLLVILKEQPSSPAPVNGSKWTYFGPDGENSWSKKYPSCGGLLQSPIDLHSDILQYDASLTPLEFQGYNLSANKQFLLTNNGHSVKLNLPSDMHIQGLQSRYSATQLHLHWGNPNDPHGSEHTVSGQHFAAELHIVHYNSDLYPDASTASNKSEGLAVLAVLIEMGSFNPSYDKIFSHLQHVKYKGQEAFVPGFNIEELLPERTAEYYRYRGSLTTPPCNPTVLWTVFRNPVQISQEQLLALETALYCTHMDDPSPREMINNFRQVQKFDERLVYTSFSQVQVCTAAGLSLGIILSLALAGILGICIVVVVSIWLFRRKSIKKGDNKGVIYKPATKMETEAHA

Carbonic anhydrase 1, sequence (P00915 whole entry): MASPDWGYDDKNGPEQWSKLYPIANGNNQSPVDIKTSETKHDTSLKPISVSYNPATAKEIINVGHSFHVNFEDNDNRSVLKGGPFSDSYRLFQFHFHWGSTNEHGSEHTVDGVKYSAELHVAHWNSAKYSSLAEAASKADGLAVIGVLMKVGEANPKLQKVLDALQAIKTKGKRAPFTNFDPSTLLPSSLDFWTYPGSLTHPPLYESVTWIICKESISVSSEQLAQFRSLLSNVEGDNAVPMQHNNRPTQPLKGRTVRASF

CC(C)(C)n1c(=O)cc(-c2cccs2)[s+]1[O-] (stereo not drawn)
Ki (Carbonic anhydrase 1): > 10000 nM
Ki (Carbonic anhydrase 2): > 10000 nM
Ki (Carbonic anhydrase 9): 48.6 nM

CC(C)(C)n1c(=O)cc(-c2ccc3ccccc3c2)[s+]1[O-] (stereo not drawn)
Ki (Carbonic anhydrase 2): > 10000 nM
Ki (Carbonic anhydrase 9): 16 nM

CC(C)(C)N1C(=O)C=C(Cl)S1(=O)=O
Ki (Carbonic anhydrase 2): > 10000 nM
Ki (Carbonic anhydrase 9): 227 nM

CC(C)(C)n1c(=O)cc(-c2cc3ccccc3n2S(=O)(=O)c2ccccc2)[s+]1[O-] (stereo not drawn)
Ki (Carbonic anhydrase 1): > 10000 nM
Ki (Carbonic anhydrase 2): > 10000 nM
Ki (Carbonic anhydrase 9): 40.3 nM

O=C1C=C(c2ccccc2)S(=O)(=O)N1
Ki (Carbonic anhydrase 1): > 10000 nM
Ki (Carbonic anhydrase 2): > 10000 nM
Ki (Carbonic anhydrase 9): 40.3 nM

CC(C)(C)N1C(=O)C=C(c2cccs2)S1(=O)=O
Ki (Carbonic anhydrase 1): > 10000 nM
Ki (Carbonic anhydrase 2): > 10000 nM
Ki (Carbonic anhydrase 9): 221 nM

O=c1cc(-c2ccccc2)[s+]([O-])[nH]1 (stereo not drawn)
Ki (Carbonic anhydrase 1): > 10000 nM
Ki (Carbonic anhydrase 2): > 10000 nM
Ki (Carbonic anhydrase 9): 45.5 nM

O=c1cc(-c2cn(S(=O)(=O)c3ccccc3)c3ccccc23)[s+]([O-])[nH]1 (stereo not drawn)
Ki (Carbonic anhydrase 1): > 10000 nM
Ki (Carbonic anhydrase 2): > 10000 nM
Ki (Carbonic anhydrase 9): 101 nM

COc1cc(-c2cc(=O)n(C(C)(C)C)[s+]2[O-])cc(OC)c1OC (stereo not drawn)
Ki (Carbonic anhydrase 1): > 10000 nM
Ki (Carbonic anhydrase 2): > 10000 nM
Ki (Carbonic anhydrase 9): 237 nM

CC(C)(C)n1sc(Cl)cc1=O
Ki (Carbonic anhydrase 2): > 10000 nM
Ki (Carbonic anhydrase 9): 98.5 nM

CC(C)(C)n1c(=O)cc(Cl)[s+]1[O-] (stereo not drawn)
Ki (Carbonic anhydrase 1): 454 nM
Ki (Carbonic anhydrase 2): > 10000 nM
Ki (Carbonic anhydrase 9): 171 nM
Ki (Carbonic anhydrase 12): 53.6 nM

CC(C)(C)n1c(=O)cc(-c2cc3ccccc3s2)[s+]1[O-] (stereo not drawn)
Ki (Carbonic anhydrase 2): > 10000 nM
Ki (Carbonic anhydrase 9): 133 nM

CC(C)(C)n1c(=O)cc(-c2cc3ccccc3o2)[s+]1[O-] (stereo not drawn)
Ki (Carbonic anhydrase 2): > 10000 nM
Ki (Carbonic anhydrase 9): 251 nM

CC(C)(C)N1C(=O)C=C(c2cc3ccccc3n2S(=O)(=O)c2ccccc2)S1(=O)=O
Ki (Carbonic anhydrase 1): > 10000 nM
Ki (Carbonic anhydrase 2): > 10000 nM
Ki (Carbonic anhydrase 9): 347 nM

CC(C)(C)N1C(=O)C=C(c2cn(S(=O)(=O)c3ccccc3)c3ccccc23)S1(=O)=O
Ki (Carbonic anhydrase 1): > 10000 nM
Ki (Carbonic anhydrase 2): 81.8 nM
Ki (Carbonic anhydrase 9): 4.3 nM

CC(C)(C)OC(=O)n1c(-c2cc(=O)n(C(C)(C)C)[s+]2[O-])cc2ccccc21 (stereo not drawn)
Ki (Carbonic anhydrase 1): > 10000 nM
Ki (Carbonic anhydrase 2): > 10000 nM
Ki (Carbonic anhydrase 9): 47.7 nM

CC(C)(C)n1c(=O)cc(-c2cn(S(=O)(=O)c3ccccc3)c3ccccc23)[s+]1[O-] (stereo not drawn)
Ki (Carbonic anhydrase 1): > 10000 nM
Ki (Carbonic anhydrase 2): 2110 nM
Ki (Carbonic anhydrase 9): 8.8 nM

CC(C)(C)n1c(=O)cc(-c2ccccc2)[s+]1[O-] (stereo not drawn)
Ki (Carbonic anhydrase 1): > 10000 nM
Ki (Carbonic anhydrase 2): > 10000 nM
Ki (Carbonic anhydrase 9): 4.5 nM

CC(C)(C)N1C(=O)C=C(c2ccccc2)S1(=O)=O
Ki (Carbonic anhydrase 1): > 10000 nM
Ki (Carbonic anhydrase 2): 1570 nM
Ki (Carbonic anhydrase 9): 28.4 nM

— ChEMBL document CHEMBL4393696, “5-Arylisothiazol-3(2H)-one-1,(1)-(di)oxides: A new class of selective tumor-associated carbonic anhydrases (hCA IX and XII) inhibitors” (Eur J Med Chem, 2019)
